One block for each molecule: values may come before it.
Legend:
medial prefrontal cortex = test system: medial prefrontal cortex; design: method as in PMID 30990795; settings: cited from earlier work
Sestrin2 = test system: Sestrin2; design: method as in PMID 30858438, PMID 30990795; settings: cited from earlier work
mTORC1 [1] = test system: mTORC1; design: method as in PMID 30858438, PMID 30990795; settings: cited from earlier work
[2] = biological target: T1, Sestrin2/GATOR2 interaction (Homo sapiens, UniProt P58004); assay: Intact cells-based Sestrin2/GATOR2 protein-protein interaction assay, Flag-WDR24 293T cells; assay type: cell-based; settings: leucine-starved flag-WDR24 HEK-293T cells, 10 minutes, S1C Fig
T1 construct: endogenous in cells; host or cells: Flag-WDR24 293T (HEK293T) cells
T1 sequence (P58004 1-480): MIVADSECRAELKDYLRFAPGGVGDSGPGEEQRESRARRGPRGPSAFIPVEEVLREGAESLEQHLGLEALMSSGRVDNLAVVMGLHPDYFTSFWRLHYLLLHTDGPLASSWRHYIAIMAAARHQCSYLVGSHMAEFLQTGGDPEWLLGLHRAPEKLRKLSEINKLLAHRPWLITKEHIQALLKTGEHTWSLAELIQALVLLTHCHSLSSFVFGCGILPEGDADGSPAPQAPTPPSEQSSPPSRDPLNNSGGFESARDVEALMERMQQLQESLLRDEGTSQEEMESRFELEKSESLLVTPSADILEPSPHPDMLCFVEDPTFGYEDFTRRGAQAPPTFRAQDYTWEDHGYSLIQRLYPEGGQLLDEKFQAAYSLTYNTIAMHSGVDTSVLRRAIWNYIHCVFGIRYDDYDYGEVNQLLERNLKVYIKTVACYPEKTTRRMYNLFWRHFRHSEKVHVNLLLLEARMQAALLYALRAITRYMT
Method: Flag-WDR24 293T cells were washed and placed in leucine-free DMEM supplemented 10% dFBS for 50 minutes followed by treatment with NV-5297, leucine or vehicle for 10 minutes. Cells were rinsed once with ice-cold PBS and immediately lysed with Triton lysis buffer (1% Triton, 10 mM β-glycerol phosphate, 10 mM pyrophosphate, 40 mM Hepes pH 7.4, 2.5 mM MgCl2 and 1 tablet of EDTA-free protease inhibitor). The cell lysates were cleared by centrifugation at 13,200 rpm at 4°C in a microcentrifuge for 10 minutes. Prior to immunoprecipitations, an aliquot of lysate was taken for SDS-PAGE and immunoblotting for pS6K1, S6K1 and tubulin. For anti-FLAG immunoprecipitations, the FLAG-M2 affinity gel was washed 3 times with Triton lysis buffer, and 30 μl of a 50/50 slurry of the FLAG-M2 affinity gel was then added to approximately 2 mg of clarified cell lysates and incubated with rotation for 3 hours at 4°C. Following immunoprecipitation, the beads were washed one time with Triton wash buffer containing 500 mM NaCl. Immunoprecipitated proteins were denatured, resolved by SDS-PAGE, and analyzed by immunoblotting.
Next, Sestrin2/GATOR2 protein-protein interactions in response to NV-5297 were measured using cell-free assays and in vitro. For this, HEK293T cells stably expressing flag-WDR24, a component of GATOR2 [44], were used. The cell-free assays utilized Sestrin2/GATOR2 complexes immunoprecipitated from amino acid-starved cells with an anti-flag antibody.

SesnTKO HEK293T cells = assay: mTORC1 activation (p70S6K1) in HEK293T cells null for all three Sestrin isoforms; assay type: cell-based; settings: leucine-starved 50 minutes, treatment 10 minutes
Method: (§1) All cell lines were cultured in DMEM (Corning, #MT10013CV) supplemented with 10% heat-inactivated FBS (Gibco, #16140–071). All cell lines were maintained at 37°C and 5% CO2. For amino acid starvation, cells were rinsed once with and incubated Amino acid-free RPMI (US Biologicals, #R8999-04A) supplemented with 10% dialyzed FBS (Gibco, #26400044) for 50 min followed by treatment with NV-5297, leucine, or vehicle for 10 minutes. For leucine starvation, cells were rinsed once with and incubated in leucine-free DMEM (AthenaES, #0420) supplemented with 10% dialyzed FBS (Gibco, #26400044) for 50 minuted followed by treatment with NV-5297, leucine, or vehicle for 10 minutes.
(§2) To ascertain if Sestrins and the GATOR pathway are required for NV-5297 activity, we tested mTORC1 activation in cells null for either all three Sestrin isoforms [SesnTKO] or for the GATOR1 component Npr13 [Npr13KO] [44]. […]
(§3) (A) Activation of the mTORC1 pathway by NV-5297. […] Representative immunoblots of ^T389pS6K1 and quantification of the normalized level of ^T389pS6K1 from 8 independent experiments (F) show TORC1 activity in unedited HEK-293T cells, HEK-293T cells deficient for Sestrin 1 (Sesn1), 2 (Sesn2) and 3 (Sesn3) (D) or HEK-293T cells deficient for the GATOR1 component Nprl3 (E) after 50 minutes leucine starvation followed by the addition of vehicle, NV-5297 or leucine for 10 minutes. […]

Npr13KO HEK293T cells = assay: mTORC1 activation (p70S6K1) in HEK293T cells null for GATOR1 component Nprl3; assay type: cell-based; settings: leucine-starved 50 minutes, treatment 10 minutes
Method: as §1, §2, §3

mTORC1 [3] = assay: mTORC1 activation (pS6K1 immunoblot) in leucine-starved HEK293T cells; assay type: cell-based; settings: HEK293T cells starved of leucine 50 minutes, treatment 10 minutes
Method: as §1
as §3, with “NV-5297. […] (B) NV-5297 disrupts Sestrin2/GATOR2 in the in vitro Sesn2/WDR24 protein-protein interaction assay in a dose-dependent manner.” for “NV-5297.”

SMILES: CC(C)(C[C@H](N)C(=O)O)C(F)F [NV-5138]
synaptic formation in the medial prefrontal cortex (medial prefrontal cortex): improved synaptic formation | Sestrin2 binding (Sestrin2): binds Sestrin2 | mTORC1 activation in peripheral tissues and CNS (mTORC1 [1]): transiently activates mTORC1

p70S6K1 (T389 pS6K1) level [2]: Dose-dependent activation of mTORC1
SMILES: CC(C)C[C@H](N)C(=O)O [leucine, reference compound]
p70S6K1 levels (SesnTKO HEK293T cells): remained unchanged | p70S6K1 levels (Npr13KO HEK293T cells): remained unchanged | mTORC1 activation measured by phosphorylated S6K1 (pS6K1 / p70S6K1) (mTORC1 [3]): activates mTORC1 in leucine-starved HEK293T cells in a dose-dependent manner
